# Measurements reported in US20210283087A1, “METHOD FOR TREATING AND RELIEVING MYOPIA” (China Medical University, priority 2014, published 2021).
# How the values were obtained:
# [1] = system: MMP2; assay: Gelatin zymography of MMP2 activity in LPS-activated scleral fibroblasts and ARPE-19 cells; format: cell-based; details: LPS + 100 μM atropine or LPS + 50 μM diacerein; 48 hours
# Experimental: To facilitate subsequent analysis, 1×10^6 cells were seeded in 24-well plates for at least 12 hours. […] To measure the MMP-2/MMP-9 activities, samples were separated using 8% SDS-PAGE containing 0.1% gelatin.
# [2] = system: Retinal cell (R28); assay: Gene expression by real-time PCR in LPS-treated R28 retinal cells; format: cell-based, rat
# Experimental: (§1) R28 rat retinal epithelial cells were provided by Gail Seigel at the Ross Eye Institute (SUNY, Buffalo, N.Y., USA). The cells were cultured in Dulbecco's modified Eagle's medium (DMEM) with 10% fetal bovine serum (FBS) at 37° C. and 5% CO2, with medium replacement every 3 days to 4 days. Sclera were placed in a 60-mm culture dish in DMEM supplemented with 10% FBS to isolate primary scleral fibroblasts; those from fewer than three passages were used in experiments. […] Cell lysates were collected for quantitative (q)PCR to determine gene expression levels.
# (§2) Total RNA was extracted using the RNeasy MiniKit (Qiagen, Valencia, Calif., USA), and 5 μg of RNA was reverse-transcribed to cDNA by using the Superscript First Strand Synthesis system (Invitrogen, Carlsbad, Calif., USA). Primers and probes used for qPCR were selected from the Universal Probes Library (Roche, West Sussex, UK). Transcript levels were normalized to those of glyceraldehyde 3-phosphate dehydrogenase in each sample.
# [3] = system: Sclera fibroblast; assay: Gene expression by real-time PCR in LPS-treated primary scleral fibroblasts; format: cell-based, hamster
# Experimental: as §1, §2
# [4] = system: monocular form deprivation (MFD) Syrian hamster; assay: Refractive power in monocular form deprivation (MFD) hamster model, streak retinoscope; format: in vivo, golden Syrian hamsters; details: for Refractive power, BL: left eye before MFD / Refractive power, BR: right eye before MFD: baseline; for Refractive power, FL: left eye after MFD / Refractive power, FR: right eye after MFD (occluded eye): 21 days; for Refractive error FR-BR: MFD right eye; for Refractive error FL-BL: non-MFD left eye
# Experimental: (§3) In this study, a total of 160 golden Syrian hamsters aged 3 weeks, weighing 80 to 90 g, and 20 albino guinea pigs, aged 2 to 3 weeks, were used for experiments. All animals were kept in a 12-hour light/dark cycle. All procedures were approved by the Institutional Animal Care and Use Committee of China Medical University and were conducted in accordance with the guidelines of the Use of Animals in Ophthalmic and Vision Research. Hamsters were raised with a right eyelid fusion for 21 days. Myopia was induced in the guinea pigs by covering the right eye with a cloth attached to the skin at a distance of at least 1 cm from the eye. MFD was induced in the right eye (with the left eye serving as a control) of animals randomly assigned to treatment or control groups (n=10 animals each) receiving daily applications of drug or phosphate-buffered saline (PBS), respectively, to both eyes.
# The RE (i.e., spherical-component RE, which is defined as the mean RE in horizontal and vertical meridians) was measured using a hand-held streak retinoscope. Animals were anesthetized with 10% ether in O2. Ocular refraction was evaluated at the start and end of the experiment. At the end of the study, animals were sacrificed through CO2 asphyxiation according to the guidelines of the Public Health Service, Office of Laboratory Animal Welfare, National Institutes of Health, and American Association of Veterinary Medicine. Eyes were enucleated using a razor blade on an ice plate under a surgical microscope (Topcon, Tokyo, Japan) by cutting perpendicularly to the anterior-posterior axis approximately 1 mm posterior to the ora serrata. The iris and ciliary body of the anterior segment of the eye were separated. Posterior sclera was excised using a 7-mm-diameter trephine. The axial lengths were determined through A-scan ultrasonography (PacScan 300 Plus, NY, USA). The average of 10 unique measurements was used.
# [5] = system: sclera and retina of hamster eyes; assay: Immunohistochemistry of hamster eyes (sclera, retina); format: in vivo
# Experimental: Antigen retrieval was performed by boiling the slides in citrate buffer (pH 6.0); the sections were then stained with antibodies against IL-6, TNF-α, TGF-β, MMP2, c-Fos, NF-κB, and CHRM1 and 3. The EnVision System peroxidase kit (DAKO, Carpentaria, Calif., USA) was used to visualize immunoreactivity.
# [6] = system: primary sclera fibroblast; assay: Immunofluorescence of MMP2 and COL1 in primary scleral fibroblasts; format: cell-based, rat; details: 100 μM atropine for 24 hours
# Experimental: Primary sclera fibroblast cells plating on cover slides were washed with Tris-buffered saline (TBS), and subsequently fixed with 4% paraformaldehyde and washed twice with TBS before blocking with 1% BSA and 0.1% Triton X-100 for 1 hour. The cells were incubated with anti-MMP2 or anti-COL1 for 1 hour before being washed three times with TBS and subsequently incubated with an appropriate secondary antibody and a 4′,6-diamidino-2-phenylindole (DAPI) DNA stain. After being washed three times with TBS, the cells were imaged using fluorescence microscopy. All experiments were performed at least in triplicate.
# [7] = system: guinea pig with MFD; assay: Refractive power and axial length in guinea pig MFD model; format: in vivo, albino guinea pigs; details: MFD + 1% atropine; Day 21
# Experimental: as §3
# The RE (i.e., spherical-component RE, which is defined as the mean RE in horizontal and vertical meridians) was measured using a hand-held streak retinoscope. Animals were anesthetized with 10% ether in O2. Ocular refraction was evaluated at the start and end of the experiment. […] The axial lengths were determined through A-scan ultrasonography (PacScan 300 Plus, NY, USA). […]
# [8] = R28, 100 ng/ml LPS and 100 μM atropine for 4 hours
# [9] = sclera fibroblast, 100 ng/ml LPS and 100 μM atropine for 4 hours
# [10] = Atropine 0.125%, listed as atropine
# [11] = Atropine 0.5%, listed as atropine
# [12] = Atropine 1%, listed as atropine
smiles,measurement,setting,value
"CN1[C@@H]2CC[C@H]1C[C@@H](OC(=O)C(CO)c1ccccc1)C2 (some centres unmarked) [Atropine, atropine]",MMP2 activities in cells activated by LPS,[1],decreased
same,Chrm5 gene expression level,[2],0.78 ± 0.24
same,Chrm 1 gene expression level,[2]; [8],0.65 ± 0.16
same,Chrm 2 gene expression level,[2]; [8],1.96 ± 0.2
same,Chrm 3 gene expression level,[2]; [8],0.78 ± 0.11
same,Chrm 4 gene expression level,[2]; [8],0.81 ± 0.23
same,Fos gene expression level,[2]; [8],0.76 ± 0.17
same,IL1b gene expression level,[2]; [8],0.17 ± 0.24
same,IL10 gene expression level,[2]; [8],1.81 ± 0.15
same,IL-6 gene expression level,[2]; [8],0.86 ± 0.19
same,MMP2 gene expression level,[2]; [8],0.75 ± 0.16
same,NFkB gene expression level,[2]; [8],0.85 ± 0.08
same,Tgfb1 gene expression level,[2]; [8],0.82 ± 0.11
same,Tnfa gene expression level,[2]; [8],0.84 ± 0.24
same,Chrm5 gene expression level,[3],0.98 ± 0.12
same,Chrm 1 gene expression level,[3]; [9],0.73 ± 0.11
same,Chrm 2 gene expression level,[3]; [9],1.24 ± 0.14
same,Chrm 3 gene expression level,[3]; [9],0.70 ± 0.23
same,Chrm 4 gene expression level,[3]; [9],1.11 ± 0.17
same,Fos gene expression level,[3]; [9],0.93 ± 0.17
same,IL1b gene expression level,[3]; [9],0.75 ± 0.13
same,IL10 gene expression level,[3]; [9],1.05 ± 0.21
same,IL-6 gene expression level,[3]; [9],0.79 ± 0.18
same,MMP2 gene expression level,[3]; [9],0.74 ± 0.19
same,NFkB gene expression level,[3]; [9],0.36 ± 0.3
same,Tgfb1 gene expression level,[3]; [9],0.48 ± 0.24
same,Tnfa gene expression level,[3]; [9],0.80 ± 0.2
same,"Refractive power, BL: left eye before MFD",[4]; Atropine 0.125% group,11.85 ± 0.18 D
same,"Refractive power, BR: right eye before MFD",[4]; Atropine 0.125% group,11.9 ± 0.07 D
same,"Refractive power, FL: left eye after MFD",[4]; Atropine 0.125%,8.32 ± 0.16 D
same,"Refractive power, FR: right eye after MFD (occluded eye)",[4]; Atropine 0.125%,6.45 ± 0.1 D
same,"Refractive power, FL: left eye after MFD",[4]; [10],8.32±0.16 D
same,"Refractive power, FR: right eye after MFD (occluded eye)",[4]; [10],6.45±0.1 D
same,Refractive error FR-BR,[4]; Atropine 0.125%,−5.45 ± 0.07 D
same,Refractive error FL-BL,[4]; Atropine 0.125%,−3.53 ± 0.28 D
same,"Refractive power, BL: left eye before MFD",[4]; Atropine 0.5% group,11.69 ± 0.13 D
same,"Refractive power, BR: right eye before MFD",[4]; Atropine 0.5% group,11.61 ± 0.1 D
same,"Refractive power, FL: left eye after MFD",[4]; Atropine 0.5%,8.58 ± 0.12 D
same,"Refractive power, FR: right eye after MFD (occluded eye)",[4]; Atropine 0.5%,6.72 ± 0.11 D
same,"Refractive power, FL: left eye after MFD",[4]; [11],8.58±0.12 D
same,"Refractive power, FR: right eye after MFD (occluded eye)",[4]; [11],6.72±0.11 D
same,Refractive error FR-BR,[4]; Atropine 0.5%,−4.89 ± 0.18 D
same,Refractive error FL-BL,[4]; Atropine 0.5%,−3.11 ± 0.19 D
same,"Refractive power, BL: left eye before MFD",[4]; Atropine 1% group,11.85 ± 0.18 D
same,"Refractive power, BR: right eye before MFD",[4]; Atropine 1% group,11.79 ± 0.15 D
same,"Refractive power, FL: left eye after MFD",[4]; Atropine 1%,10.79 ± 0.16 D
same,"Refractive power, FR: right eye after MFD (occluded eye)",[4]; Atropine 1%,7.06 ± 0.29 D
same,"Refractive power, FL: left eye after MFD",[4]; [12],10.79±0.16 D
same,"Refractive power, FR: right eye after MFD (occluded eye)",[4]; [12],7.06±0.29 D
same,Refractive error FR-BR,[4]; Atropine 1%,−4.74 ± 0.39 D
same,Refractive error FL-BL,[4]; Atropine 1%,−1.06 ± 0.22 D
same,IL-6 and TNF-α immunoreactivity in the retina of MFD eyes,[5]; 1% atropine,reduced
same,c-Fos and NF-κB expression in the retinas of MFD eyes,[5]; 1% atropine,suppressed
same,COL1 expression in the sclera of the MFD eye,[5]; 1% atropine compared with PBS,increased
same,MMP2 expression in the sclera of the MFD eye,[5]; 1% atropine compared with PBS,decreased
same,MFD upregulation of TGF-β level in retina and sclera,[5]; atropine,suppressed
same,IL-10 expression,[5]; atropine treatment,elevated
same,CHRM1 and CHRM 3 expression in MFD eyes,[5]; atropine treatment compared with PBS-treated MFD eyes,downregulated
same,COL1 expression,[6],increased
same,Expression levels of MMP2,[6],inhibited
same,"Refractive power, left eye (control eye)",[7],−1.50±0.82 D
same,"Refractive power, right eye (myopic eye)",[7],−6.79±1.00 D
